Data from publication PMC6957248 (Bioorganic & medicinal chemistry letters, 2016).

How the values were obtained:
[1] = molecular target: T1, human TRPV1 heterologously expressed in Chinese hamster ovary (CHO) cells (Homo sapiens, UniProt Q8NER1); experiment: binding competition assay with [3H]-resiniferatoxin; conditions: for fold weaker binding affinity compared to 1: ratio of Ki versus compound 1
[2] = molecular target: T1, human TRPV1 heterologously expressed in Chinese hamster ovary (CHO) cells; format: cell-based; conditions: for fold weaker antagonistic potency compared to 1: ratio of Ki(ant) versus compound 1

T1 sequence (Q8NER1 whole entry): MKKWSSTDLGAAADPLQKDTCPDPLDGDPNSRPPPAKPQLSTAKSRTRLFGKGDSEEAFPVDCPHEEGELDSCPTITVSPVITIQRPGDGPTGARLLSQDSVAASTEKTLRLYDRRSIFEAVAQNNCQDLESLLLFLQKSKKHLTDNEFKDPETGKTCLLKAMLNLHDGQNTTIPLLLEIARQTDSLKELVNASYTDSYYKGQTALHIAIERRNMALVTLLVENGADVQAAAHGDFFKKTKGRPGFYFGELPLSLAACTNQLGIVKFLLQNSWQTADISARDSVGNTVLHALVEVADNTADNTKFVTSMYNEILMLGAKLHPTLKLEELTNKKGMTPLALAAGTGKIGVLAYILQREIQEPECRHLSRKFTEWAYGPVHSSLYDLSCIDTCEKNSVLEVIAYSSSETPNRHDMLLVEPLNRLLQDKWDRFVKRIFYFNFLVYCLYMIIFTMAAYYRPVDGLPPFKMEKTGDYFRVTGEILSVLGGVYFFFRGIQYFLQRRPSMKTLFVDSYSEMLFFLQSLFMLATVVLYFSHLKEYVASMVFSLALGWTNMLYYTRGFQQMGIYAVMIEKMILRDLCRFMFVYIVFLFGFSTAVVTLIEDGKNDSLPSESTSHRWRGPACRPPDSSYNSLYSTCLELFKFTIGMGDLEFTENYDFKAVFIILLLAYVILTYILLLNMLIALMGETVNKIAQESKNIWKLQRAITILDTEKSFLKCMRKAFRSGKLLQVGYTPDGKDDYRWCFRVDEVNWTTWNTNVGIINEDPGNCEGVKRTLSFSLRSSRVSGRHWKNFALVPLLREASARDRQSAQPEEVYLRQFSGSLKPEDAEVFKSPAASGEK

Structure (SMILES)	fold weaker binding affinity compared to 1 [1] [fold]	fold weaker antagonistic potency compared to 1 [2] [fold]	further results
CC1CCN(c2nc(C(F)(F)F)ccc2CCNC(=O)C(C)c2ccc(NS(C)(=O)=O)c(F)c2)CC1 (stereo not shown) [Compound 11]	7	43	–
CC1CCN(c2nc(C(F)(F)F)ccc2CNC(=O)C(C)c2ccc(CNS(C)(=O)=O)c(F)c2)CC1 (stereo not shown) [Compound 16]	29	12	–
CC1CCN(c2nc(C(F)(F)F)ccc2CNC(=O)Nc2ccc(NS(C)(=O)=O)c(F)c2)CC1 [Compound 21]	11	67	–
Cc1cccc(N(C(=O)NCc2ccc(C(F)(F)F)nc2N2CCC(C)CC2)c2ccc(NS(C)(=O)=O)c(F)c2)c1 [Compound 42]	–	–	extent of antagonism, 15 min pre-incubation ([2]; cells incubated with compound 15 min before challenge with capsaicin): full antagonism
CC1CCN(c2nc(C(F)(F)F)ccc2CCNC(=O)Nc2ccc(NS(C)(=O)=O)c(F)c2)CC1 [Compound 22]	–	–	character of antagonism ([2]; capsaicin stimulated 45Ca2+ uptake): partial antagonist
CC1CCN(c2nc(C(F)(F)F)ccc2CNC(=O)Nc2ccc(CNS(C)(=O)=O)c(F)c2)CC1 [Compound 27]	–	–	fold increase in binding affinity compared to 21 ([1]; ratio of Ki versus compound 21): approximately 12 fold; fold increase in antagonistic potency compared to 21 ([2]; ratio of Ki(ant) versus compound 21): approximately 12 fold
